Data set [1] deals with Glutamate NMDA receptor. Description: Displacement of [3H]-MK801 from NMDA receptor in rat brain homogenate. The class given is tissue-based.
The nature of data set [2]: Cmax in mouse brain at 10 mg/kg, ip measured after 10 mins. The class given is ADME, organism-based. On the set-up: route intraperitoneal, time 10 min, dose 10 mg/kg. Particulars: in vivo.
Data set [3] concerns the target Glutamate NMDA receptor. Description: Displacement of [3H]-MK801 from NMDA receptor in rat brain membranes. The format is cell membranes, Membrane.
Data set [4] in a line: Aqueous solubility of the compound. The class given is physicochemical.
The subject of data set [5] is Homo sapiens. Description: Anesthetic activity in IM dosed human assessed as time duration for onset of action. The format is functional.
The target in data set [6] is Glutamate NMDA receptor. Description: Displacement of [3H]-MK801 from NMDA receptor in rat brain membranes incubated for 60 mins in presence of Mg2+ by liquid scintillation counting method. The class given is cell membranes, Membrane.
Data set [7] has as its target Glutamate NMDA receptor. As to the kind of experiment: Displacement of [3H]-MK801 from NMDA receptor in rat whole brain homogenate incubated for 2 hrs in presence of Mg2+ by liquid scintillation counting method. The class given is tissue-based.
Data set [8] is described as follows: Bioavailability in SL dosed human. The class given is ADME, organism-based. To be noted: in vivo.
Data set [9] concerns Homo sapiens. Description: Anesthetic activity in po dosed human assessed as time duration of action. The format is functional.
Data set [10] concerns Homo sapiens. As to the kind of experiment: Anesthetic activity in IM dosed human assessed as time duration of action. The format is functional.
Data set [11] deals with Glutamate NMDA receptor. Description: Displacement of [3H]-MK801 from NMDA receptor in Sprague-Dawley rat brain synaptic membrane incubated for 60 mins by liquid scintillation counting method. The class given is cell membranes.
Data set [12] in a line: Displacement of [3H]-MK801 from NMDA receptor in Dunkin-Hartley guinea pig brain homogenate incubated for 45 mins by liquid scintillation spectrometry. The format is tissue-based, Cavia porcellus.
The nature of data set [13]: Drug elimination in human urine assessed as metabolically unchanged compound. The format is ADME. To be noted: read-out: Drug excretion.
For data set [14], the system named is Homo sapiens. Description: Anesthetic activity in SC dosed human assessed as time duration for onset of action. The class given is functional.
Data set [15] concerns the target Glutamate NMDA receptor. As to the kind of experiment: Displacement of [3H]-MK801 from NMDA receptor in rat brain membranes incubated for 45 mins in presence of Mg2+ by scintillation counting method. The format is cell membranes, Membrane.
The nature of data set [16]: Displacement of [3H]-MK801 from NMDA receptor in dog cerebral cortex incubated for 45 mins by liquid scintillation spectrometry. The format is tissue-based, Canis lupus familiaris.
A short description of data set [17]: Elimination half life in Wistar rat at 20 mg/kg, iv by LC-MS analysis. The class given is ADME, organism-based. To be noted: in vivo, read-out: beta t1/2 (converted).
Data set [18] deals with Homo sapiens. Description: Anesthetic activity in po dosed human assessed as time duration for onset of action. The class given is functional.
A short description of data set [19]: Bioavailability in IN dosed human. The class given is ADME, organism-based. To be noted: in vivo, inhaled or intranasal.
The target of data set [20] is Glutamate NMDA receptor. Description: Displacement of [3H]-MK801 from NMDA receptor in Sprague-Dawley rat cerebellum by liquid scintillation counting method. The class given is tissue-based.
In data set [21] the target is Glutamate NMDA receptor. As to the kind of experiment: Displacement of [3H]-MK801 from NMDA receptor in Sprague-Dawley rat cortex incubated for 2 hrs in presence of Mg2+ by scintillation counting method. The class given is tissue-based.
Data set [22] addresses Glutamate [NMDA] receptor. Description: Displacement of [3H]-MK801 from NMDA receptor in human frontal cortex in presence of Mg2+ by scintillation counting method. The format is tissue-based.
The nature of data set [23]: Protein binding in human plasma. The class given is ADME, cell-free. Particulars: read-out: PPB (converted).
Data set [24] addresses Glutamate NMDA receptor. Description: Displacement of [3H]-MK801 from NMDA receptor in rat spinal cord incubated for 45 mins by liquid scintillation spectrometry. The format is tissue-based.
The nature of data set [25]: Bioavailability in human at 0.5 mg/kg, IM. The class given is ADME, organism-based. Particulars: in vivo.
Data set [26] deals with Glutamate NMDA receptor. Description: Displacement of [3H]-MK801 from NMDA receptor in rat brain membranes incubated for 2 hrs in presence of Mg2+ by radioligand binding assay. The format is cell membranes, Membrane.
A short description of data set [27]: Elimination half life in human. The format is ADME. Particulars: read-out: beta t1/2 (converted).
Data set [28] can be described thus: Displacement of [3H]-MK801 from NMDA receptor in dog brain homogenate incubated for 45 mins by liquid scintillation spectrometry. The format is tissue-based, Canis lupus familiaris.
Data set [29] has as its target Glutamate NMDA receptor. As to the kind of experiment: Displacement of [3H]-TCP from NMDA receptor in rat brain membranes incubated for 45 mins in presence of Mg2+ by scintillation counting method. The format is cell membranes, Membrane.
Data set [30] in a line: Oral bioavailability in human. The class given is ADME, organism-based. To be noted: in vivo.
Data set [31] has as its target Glutamate NMDA receptor. Description: Displacement of [3H]-MK801 from NMDA receptor in Sprague-Dawley rat cerebral cortex by liquid scintillation counting method. The class given is tissue-based.
Data set [32] addresses Glutamate NMDA receptor; Grin1/Grin2b (Rattus norvegicus, UniProt P35439+Q00960). Description: Displacement of [3H]-MK801 from rat brain GluN1/GluN2B expressed in HEK293 cells. The class given is cell-based.
The subject of data set [33] is Homo sapiens. As to the kind of experiment: Anesthetic activity in IN dosed human assessed as time duration for onset of action. The class given is functional.
Data set [34] has as its target Glutamate NMDA receptor. As to the kind of experiment: Inhibition of NMDAR-mediated excitatory postsynaptic potential in Sprague-Dawley rat hippocampus CA1 region by electrophysiology. On the set-up: species or system Brain.
Data set [35] addresses Glutamate NMDA receptor; Grin1/Grin2a (Rattus norvegicus, UniProt P35439+Q00959). As to the kind of experiment: Displacement of [3H]-MK801 from rat brain GluN1/GluN2A expressed in HEK293 cells. The format is cell-based.
Data set [36] is described as follows: Bioavailability in iv dosed human. To be noted: in vivo. The class given is ADME, organism-based.
The target of data set [37] is Glutamate NMDA receptor. Description: Displacement of [3H]-MK801 from NMDA receptor in rat striatum incubated for 2 hrs in presence of Mg2+ by scintillation counting method. The class given is tissue-based.
For data set [38], the target named is Glutamate NMDA receptor. Description: Displacement of [3H]-MK801 from NMDA receptor in rat brain membranes incubated for 2 hrs in presence of Mg2+/glumate/glycine by radioligand binding assay. The format is cell membranes, Membrane.
Data set [39] concerns the target Glutamate NMDA receptor; GRIN1/GRIN2A (Homo sapiens, UniProt Q05586+Q12879). Description: Displacement of [3H]-MK801 from human forebrain […] expressed in HEK293 cells by […]. The class given is cell-based.
The target of data set [40] is Glutamate [NMDA] receptor. As to the kind of experiment: Displacement of [3H]-MK801 from NMDA receptor in human cortex incubated for 2 hrs in presence of Mg2+ by scintillation counting method. The format is tissue-based.
In data set [41] the target is Glutamate NMDA receptor. As to the kind of experiment: Displacement of [3H]-MK801 from NMDA receptor in rat forebrain homogenate incubated for 2 hrs in presence of Mg2+ by liquid scintillation counting method. The class given is tissue-based.
Data set [42] in a line: Displacement of [3H]-MK801 from NMDA receptor in ICR Harlan mouse brain homogenate incubated for 45 mins by liquid scintillation spectrometry. The format is tissue-based.
Data set [43] can be described thus: Bioavailability in REC dosed human. The format is ADME, organism-based. Particulars: in vivo.
A short description of data set [44]: Cmax in human at 2 mg/kg, iv measured after 1 mins. To be noted: in vivo. Also noted: route intravenous, time 1 min, dose 2 mg/kg. The format is ADME, organism-based.
Data set [45] is described as follows: Solubility of the compound in water. The format is physicochemical.

In brackets after ≈: the same amount, converted by molar mass.

Sequence of Glutamate NMDA receptor; Grin1/Grin2a (Q00959 whole entry, other chains not shown): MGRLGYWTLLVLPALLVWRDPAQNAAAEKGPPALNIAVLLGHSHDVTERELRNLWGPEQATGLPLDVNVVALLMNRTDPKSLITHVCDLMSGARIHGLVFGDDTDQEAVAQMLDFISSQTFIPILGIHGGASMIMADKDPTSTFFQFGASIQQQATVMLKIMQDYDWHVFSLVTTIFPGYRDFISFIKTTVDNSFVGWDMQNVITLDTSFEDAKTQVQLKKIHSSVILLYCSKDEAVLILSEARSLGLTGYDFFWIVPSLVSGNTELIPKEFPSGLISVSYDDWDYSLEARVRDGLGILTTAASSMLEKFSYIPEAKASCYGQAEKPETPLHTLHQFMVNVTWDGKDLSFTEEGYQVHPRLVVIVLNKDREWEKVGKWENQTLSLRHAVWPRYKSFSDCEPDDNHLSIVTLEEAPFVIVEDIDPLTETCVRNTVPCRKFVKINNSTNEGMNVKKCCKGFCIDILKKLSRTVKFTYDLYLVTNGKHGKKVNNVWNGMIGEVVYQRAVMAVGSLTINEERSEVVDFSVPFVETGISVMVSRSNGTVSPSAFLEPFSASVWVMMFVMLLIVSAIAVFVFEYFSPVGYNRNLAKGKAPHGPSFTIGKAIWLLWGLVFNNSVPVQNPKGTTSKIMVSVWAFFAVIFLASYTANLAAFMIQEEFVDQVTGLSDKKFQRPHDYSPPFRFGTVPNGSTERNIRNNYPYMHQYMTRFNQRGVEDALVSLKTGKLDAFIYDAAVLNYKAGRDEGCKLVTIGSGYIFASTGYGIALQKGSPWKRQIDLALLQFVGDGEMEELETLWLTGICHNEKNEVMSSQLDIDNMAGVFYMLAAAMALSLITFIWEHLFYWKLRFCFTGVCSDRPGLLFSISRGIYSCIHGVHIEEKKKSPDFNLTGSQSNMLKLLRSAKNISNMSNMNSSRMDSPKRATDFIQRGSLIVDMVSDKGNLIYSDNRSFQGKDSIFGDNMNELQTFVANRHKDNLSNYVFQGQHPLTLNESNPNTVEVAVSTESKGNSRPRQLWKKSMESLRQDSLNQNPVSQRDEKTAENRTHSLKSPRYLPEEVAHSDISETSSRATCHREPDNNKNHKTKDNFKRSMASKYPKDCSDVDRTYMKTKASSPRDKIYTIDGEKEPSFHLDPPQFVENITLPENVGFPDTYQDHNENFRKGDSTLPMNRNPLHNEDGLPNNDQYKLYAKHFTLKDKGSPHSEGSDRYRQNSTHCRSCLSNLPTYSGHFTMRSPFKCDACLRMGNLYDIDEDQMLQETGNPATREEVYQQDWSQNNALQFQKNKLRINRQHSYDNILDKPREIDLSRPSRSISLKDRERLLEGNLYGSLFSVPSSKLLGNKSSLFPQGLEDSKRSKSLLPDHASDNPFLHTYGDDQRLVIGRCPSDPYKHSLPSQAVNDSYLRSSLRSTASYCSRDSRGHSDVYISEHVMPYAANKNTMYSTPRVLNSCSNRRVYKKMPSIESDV
Sequence of Glutamate NMDA receptor; Grin1/Grin2b (Q00960 whole entry, other chains not shown): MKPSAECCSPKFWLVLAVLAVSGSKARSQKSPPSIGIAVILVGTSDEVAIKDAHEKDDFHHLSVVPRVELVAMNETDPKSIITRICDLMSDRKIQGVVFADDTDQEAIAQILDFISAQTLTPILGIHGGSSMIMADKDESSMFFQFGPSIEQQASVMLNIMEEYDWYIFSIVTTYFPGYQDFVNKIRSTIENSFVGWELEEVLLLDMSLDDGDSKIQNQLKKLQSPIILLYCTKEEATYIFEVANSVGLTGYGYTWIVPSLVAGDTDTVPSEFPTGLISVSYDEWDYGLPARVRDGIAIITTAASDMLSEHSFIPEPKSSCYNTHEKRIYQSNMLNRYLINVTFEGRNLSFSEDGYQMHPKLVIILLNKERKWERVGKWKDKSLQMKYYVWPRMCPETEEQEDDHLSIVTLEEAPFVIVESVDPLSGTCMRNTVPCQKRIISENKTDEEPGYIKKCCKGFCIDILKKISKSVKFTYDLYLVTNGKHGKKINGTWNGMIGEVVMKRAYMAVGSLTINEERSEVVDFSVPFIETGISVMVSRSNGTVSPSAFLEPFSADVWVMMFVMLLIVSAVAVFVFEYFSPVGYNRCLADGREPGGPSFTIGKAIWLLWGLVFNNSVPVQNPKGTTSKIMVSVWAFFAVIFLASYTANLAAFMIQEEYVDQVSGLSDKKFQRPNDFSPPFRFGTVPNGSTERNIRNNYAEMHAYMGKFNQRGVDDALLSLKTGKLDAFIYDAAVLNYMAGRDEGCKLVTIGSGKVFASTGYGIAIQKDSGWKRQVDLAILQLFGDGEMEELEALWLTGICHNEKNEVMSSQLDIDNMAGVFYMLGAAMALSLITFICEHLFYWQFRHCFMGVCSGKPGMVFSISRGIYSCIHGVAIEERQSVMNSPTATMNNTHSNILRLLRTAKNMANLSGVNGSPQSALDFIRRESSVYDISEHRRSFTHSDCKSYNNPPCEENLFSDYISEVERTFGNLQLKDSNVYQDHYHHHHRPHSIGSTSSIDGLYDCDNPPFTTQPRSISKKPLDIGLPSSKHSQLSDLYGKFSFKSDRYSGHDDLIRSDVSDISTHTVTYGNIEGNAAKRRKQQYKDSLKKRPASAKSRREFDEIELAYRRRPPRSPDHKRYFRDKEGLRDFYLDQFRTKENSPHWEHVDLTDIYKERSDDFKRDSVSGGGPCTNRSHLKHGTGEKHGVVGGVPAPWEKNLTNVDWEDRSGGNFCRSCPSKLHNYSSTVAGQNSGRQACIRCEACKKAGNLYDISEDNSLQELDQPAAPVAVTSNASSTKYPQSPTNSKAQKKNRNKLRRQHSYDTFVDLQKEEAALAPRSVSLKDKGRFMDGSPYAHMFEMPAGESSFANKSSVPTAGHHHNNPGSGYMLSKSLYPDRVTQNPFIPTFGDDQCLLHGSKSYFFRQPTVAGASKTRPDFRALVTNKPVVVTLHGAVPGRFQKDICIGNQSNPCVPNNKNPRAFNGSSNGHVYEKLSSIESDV
Sequence of Glutamate NMDA receptor; GRIN1/GRIN2A (Q12879 whole entry, other chains not shown): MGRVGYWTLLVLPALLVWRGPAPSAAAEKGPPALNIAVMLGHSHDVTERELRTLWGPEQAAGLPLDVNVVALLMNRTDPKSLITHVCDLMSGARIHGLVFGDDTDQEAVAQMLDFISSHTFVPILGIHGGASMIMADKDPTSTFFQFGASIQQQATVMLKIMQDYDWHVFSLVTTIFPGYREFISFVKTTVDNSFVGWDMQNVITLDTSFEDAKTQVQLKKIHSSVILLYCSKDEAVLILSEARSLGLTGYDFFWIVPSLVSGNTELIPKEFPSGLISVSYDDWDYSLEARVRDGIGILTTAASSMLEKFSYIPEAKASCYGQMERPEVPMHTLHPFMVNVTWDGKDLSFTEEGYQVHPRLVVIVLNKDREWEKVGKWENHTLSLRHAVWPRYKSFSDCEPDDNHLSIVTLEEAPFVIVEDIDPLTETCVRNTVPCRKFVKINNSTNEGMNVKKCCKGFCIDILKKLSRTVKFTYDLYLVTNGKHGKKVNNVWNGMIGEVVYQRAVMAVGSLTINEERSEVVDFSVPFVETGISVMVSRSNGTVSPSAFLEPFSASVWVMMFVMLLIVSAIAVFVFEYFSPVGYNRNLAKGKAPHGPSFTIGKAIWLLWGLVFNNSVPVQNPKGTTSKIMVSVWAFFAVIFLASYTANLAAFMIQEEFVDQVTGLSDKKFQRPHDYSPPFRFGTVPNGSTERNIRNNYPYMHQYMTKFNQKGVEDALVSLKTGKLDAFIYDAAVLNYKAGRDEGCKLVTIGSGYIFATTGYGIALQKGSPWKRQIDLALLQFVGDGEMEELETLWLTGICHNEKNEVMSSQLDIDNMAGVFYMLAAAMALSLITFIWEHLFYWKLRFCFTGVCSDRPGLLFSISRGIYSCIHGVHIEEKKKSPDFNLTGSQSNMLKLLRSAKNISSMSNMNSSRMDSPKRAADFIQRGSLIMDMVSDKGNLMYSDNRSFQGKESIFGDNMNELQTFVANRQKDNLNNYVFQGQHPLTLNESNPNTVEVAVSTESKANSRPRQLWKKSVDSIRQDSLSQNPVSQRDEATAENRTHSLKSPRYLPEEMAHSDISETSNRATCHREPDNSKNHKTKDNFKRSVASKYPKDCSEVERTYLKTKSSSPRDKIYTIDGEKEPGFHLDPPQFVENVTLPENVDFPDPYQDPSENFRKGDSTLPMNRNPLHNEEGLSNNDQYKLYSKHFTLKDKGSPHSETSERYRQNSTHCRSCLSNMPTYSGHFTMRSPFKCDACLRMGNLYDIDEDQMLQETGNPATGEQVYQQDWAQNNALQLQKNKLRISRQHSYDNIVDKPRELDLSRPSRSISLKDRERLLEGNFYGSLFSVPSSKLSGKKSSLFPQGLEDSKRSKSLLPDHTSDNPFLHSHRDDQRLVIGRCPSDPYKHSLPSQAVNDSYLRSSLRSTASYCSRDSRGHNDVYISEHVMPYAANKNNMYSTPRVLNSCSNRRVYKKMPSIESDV

Consider `CN[C@]1(c2ccccc2Cl)CCCCC1=O` [ESKETAMINE], for which the results for the Ki at Glutamate NMDA receptor [1] and at Glutamate NMDA receptor [3] were 300 nM and 690 nM, respectively. For the same compound, the Cmax in data set [2] stood at 7.33 µmol/kg.
On to `CNC1(c2ccccc2Cl)CCCCC1=O` (stereo not given) [KETAMINE], for which, in data set [4], the concentration in solution (solubility) was 0.046 mg/mL (≈ 193 µM). In addition, the Time came out at 1 min in the data set with Homo sapiens [5]; 4 h in the data set on Homo sapiens [9]; 0.5 h with Homo sapiens [10]; 15 min in the data set on Homo sapiens [14]; 15 min in the data set with Homo sapiens [18]; 5 min in the data set with Homo sapiens [33]. Moreover, the Ki (at Glutamate NMDA receptor [6]; on Glutamate NMDA receptor [7]; on Glutamate NMDA receptor [11]; in data set [12]; on Glutamate NMDA receptor [15]; in data set [16]) was 180 nM in each case. For the same compound, the Ki (on Glutamate NMDA receptor [20]; at Glutamate NMDA receptor [21]; in data set [22]; at Glutamate NMDA receptor [24]; on Glutamate NMDA receptor [26]; in data set [28]) was 180 nM throughout. Further, the Ki (at Glutamate NMDA receptor [29]; at Glutamate NMDA receptor [31]; in [32]; in [35]; on Glutamate NMDA receptor [37]; at Glutamate NMDA receptor [38]) was 180 nM each time. The Ki (in data set [39]; in [40]; at Glutamate NMDA receptor [41]; in data set [42]) was 180 nM in each case. In addition, the bioavailability in data set [8] worked out at 24%; in data set [19], 8%; in data set [25], 93%; in data set [30], 17%; in [43], 11%. In addition, the dose excreted in data set [13] amounted to 2%. For the same compound, the half-life in data set [17] is 8 h; in data set [27], 2 h. In data set [23], the fraction unbound is 0.88. In addition, the IC50 at Glutamate NMDA receptor [34] stood at 10000 nM. Further, the F in data set [36] was 100%. Further, the Cmax in [44] stood at 7.6 µM.
Regarding `N[C@]1(c2ccccc2Cl)CCCCC1=O`, the figures for the Ki at Glutamate NMDA receptor [1] and on Glutamate NMDA receptor [3] were 1700 nM and 2250 nM, respectively.
Turning to `CNC1(c2ccccc2Cl)CCCCC1=O.Cl` (stereo not given) [KETAMINE HYDROCHLORIDE], the solubility in [45] came to 200 mg/mL.
As for `CN[C@@]1(c2ccccc2Cl)CCCCC1=O`, the Ki is 1400 nM on Glutamate NMDA receptor [1] and 2570 nM on Glutamate NMDA receptor [3]. Also, the Cmax in [2] worked out at 7.93 µmol/kg.

For the origin of these results see ChEMBL document CHEMBL4680282, “Repurposing of Drugs-The Ketamine Story” (J Med Chem, 2020).
